# Results from ChEMBL document CHEMBL1144805, “The cephalostatin way of apoptosis” (2008).
# Experiments:
# UACC-62 = assay: Cytotoxicity against human UACC62 cells; format: functional
# Malme-3M = assay: Cytotoxicity against human MALME3M cells; format: functional
# M14 = assay: Cytotoxicity against human M14 cells; format: functional
# OVCAR-8 = assay: Cytotoxicity against human OVCAR8 cells; format: functional
# COLO 205 = assay: Cytotoxicity against human COLO205 cells; format: functional
# NCI-H522 = assay: Cytotoxicity against human NCI-H522 cells; format: functional
# SK-OV-3 = assay: Cytotoxicity against human SK-OV-3 cells; format: functional
# ACHN = assay: Cytotoxicity against human ACHN cells; format: functional
# NCI-H23 = assay: Cytotoxicity against human NCI-H23 cells; format: functional
# [1] = Cytotoxicity against human DMS144 cells; format: functional
# SW-620 = assay: Cytotoxicity against human SW620 cells; format: functional
# OVCAR-3 = assay: Cytotoxicity against human OVCAR-3 cells; format: functional
# NCI-H226 = assay: Cytotoxicity against human NCI-H226 cells; format: functional
# CCRF-CEM = assay: Cytotoxicity against human CCRF-CEM cells; format: functional
# SNB-78 = assay: Cytotoxicity against human SNB78 cells; format: functional
# HCT-116 = assay: Cytotoxicity against human HCT116 cells; format: functional
# [2] = Cytotoxicity against human […] cells; format: functional
# MOLT-4 = assay: Cytotoxicity against human MOLT4 cells; format: functional
# UACC-257 = assay: Cytotoxicity against human UACC257 cells; format: functional
# OVCAR-4 = assay: Cytotoxicity against human OVCAR4 cells; format: functional
# [3] = Cytotoxicity against human HL60(TB) cells; format: functional, HL-60(TB); conditions: HL-60
# IGROV-1 = assay: Cytotoxicity against human IGROV1 cells; format: functional
# KM-20L2 = assay: Cytotoxicity against human KM20L2 cells; format: functional
# SK-MEL-28 = assay: Cytotoxicity against human SK-MEL-28 cells; format: functional
# SK-MEL-5 = assay: Cytotoxicity against human SK-MEL-5 cells; format: functional
# HOP-18 = assay: Cytotoxicity against human HOP18 cells; format: functional
# OVCAR-5 = assay: Cytotoxicity against human OVCAR5 cells; format: functional
# [4] = Cytotoxicity against human TK20 cells; format: functional
# SNB-75 = assay: Cytotoxicity against human SNB75 cells; format: functional
# DMS-273 = assay: Cytotoxicity against human DMS273 cells; format: functional
# SF-268 = assay: Cytotoxicity against human SF268 cells; format: functional
# [5] = Cytotoxicity against human 786-O cells; format: functional; conditions: 786-0
# SN12C = assay: Cytotoxicity against human SN12C cells; format: functional
# UO-31 = assay: Cytotoxicity against human UO31 cells; format: functional
# A549 = assay: Cytotoxicity against human A549 cells; format: functional
# CAKI-1 = assay: Cytotoxicity against human CAKI1 cells; format: functional
# SR = assay: Cytotoxicity against human SR cells; format: functional
# U-251 = assay: Cytotoxicity against human U251 cells; format: functional
# RXF 393 = assay: Cytotoxicity against human RXF393 cells; format: functional
# HOP-92 = assay: Cytotoxicity against human HOP92 cells; format: functional
# XF498 = assay: Cytotoxicity against human XF498 cells; format: functional
# NCI-H322M = assay: Cytotoxicity against human NCI-H322M cells; format: functional
# LOX IMVI = assay: Cytotoxicity against human LOXIMVI cells; format: functional
# SF-539 = assay: Cytotoxicity against human SF539 cells; format: functional
# SNB-19 = assay: Cytotoxicity against human SNB19 cells; format: functional
# [6] = Cytotoxicity against human HCC2996 cells; format: functional
# HT-29 = assay: Cytotoxicity against human HT29 cells; format: functional
# SK-MEL-2 = assay: Cytotoxicity against human SK-MEL-2 cells; format: functional
# DLD-1 = assay: Cytotoxicity against human DLD1 cells; format: functional
# [7] = Cytotoxicity against human LXFL529 cells; format: functional; conditions: LXFL 529
# EKVX = assay: Cytotoxicity against human EKVX cells; format: functional
# KM12 = assay: Cytotoxicity against human KM12 cells; format: functional
# RPMI-8226 = assay: Cytotoxicity against human RPMI8226 cells; format: functional
# M19-MEL = assay: Cytotoxicity against human M19-MEL cells; format: functional
# NCI-H460 = assay: Cytotoxicity against human NCI-H460 cells; format: functional
# HCT-15 = assay: Cytotoxicity against human HCT15 cells; format: functional
# SF-295 = assay: Cytotoxicity against human SF295 cells; format: functional
# HOP-62 = assay: Cytotoxicity against human HOP62 cells; format: functional
compound,measurement,setting,value
C[C@@H]1[C@]2(O[C@H]3C=C4[C@@H]5CC[C@H]6Cc7nc8c(nc7C[C@]6(C)[C@H]5C[C@@H](O)[C@]4(C)[C@]31O)C[C@@H]1CC[C@H]3C4=CC[C@@H]5[C@H](C)[C@@]6(OC[C@]45C(=O)C[C@]3(O)[C@@]1(C)C8)OC(C)(C)C[C@H]6O)O[C@](C)(CO)C[C@H]2O [CEPHALOSTATIN 2],GI50,UACC-62,0.141 nM
same,GI50,Malme-3M,2.95 nM
same,GI50,M14,0.219 nM
same,GI50,OVCAR-8,200 nM
same,GI50,COLO 205,0.617 nM
same,GI50,NCI-H522,0.794 nM
same,GI50,SK-OV-3,0.457 nM
same,GI50,ACHN,2.57 nM
same,GI50,NCI-H23,0.708 nM
same,GI50,[1],0.11 nM
same,GI50,SW-620,0.174 nM
same,GI50,OVCAR-3,347 nM
same,GI50,NCI-H226,0.141 nM
same,GI50,CCRF-CEM,0.126 nM
same,GI50,SNB-78,0.251 nM
same,GI50,HCT-116,0.295 nM
same,GI50,[2],0.339 nM
same,GI50,MOLT-4,0.12 nM
same,GI50,UACC-257,0.912 nM
same,GI50,OVCAR-4,17 nM
same,GI50,[3],0.1 nM
same,GI50,IGROV-1,2.57 nM
same,GI50,KM-20L2,0.661 nM
same,GI50,SK-MEL-28,0.234 nM
same,GI50,SK-MEL-5,0.724 nM
same,GI50,HOP-18,14.4 nM
same,GI50,OVCAR-5,14.1 nM
same,GI50,[4],20.4 nM
same,GI50,SNB-75,0.1 nM
same,GI50,DMS-273,0.1 nM
same,GI50,SF-268,0.195 nM
same,GI50,[5],0.141 nM
same,GI50,SN12C,105 nM
same,GI50,UO-31,1.18 nM
same,GI50,A549,0.295 nM
same,GI50,CAKI-1,0.575 nM
same,GI50,SR,0.135 nM
same,GI50,U-251,0.112 nM
same,GI50,RXF 393,0.1 nM
same,GI50,HOP-92,0.105 nM
same,GI50,XF498,0.1 nM
same,GI50,NCI-H322M,28.2 nM
same,GI50,LOX IMVI,0.151 nM
same,GI50,SF-539,0.1 nM
same,GI50,SNB-19,2.4 nM
same,GI50,[6],74.1 nM
same,GI50,HT-29,0.912 nM
same,GI50,SK-MEL-2,0.288 nM
same,GI50,DLD-1,70.8 nM
same,GI50,[7],0.138 nM
same,GI50,EKVX,6.17 nM
same,GI50,KM12,0.371 nM
same,GI50,RPMI-8226,0.1 nM
same,GI50,M19-MEL,331 nM
same,GI50,NCI-H460,0.126 nM
same,GI50,HCT-15,2.34 nM
same,GI50,SF-295,0.1 nM
same,GI50,HOP-62,0.105 nM
